ChEMBL document CHEMBL1201862, “PubChem BioAssay data set” (2004)
The source made the active and inactive calls.

Experiments:
[1] = inhibitors of Vif binding to APOBEC3G peptide, primary screen, biochemical, TR-FRET, GST-Vif 1-94, biotin-A3G peptide, dose response retest (AID 1117319); format: functional;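 also: TR-FRET signal of purified GST-Vif binding a biotinylated A3G peptide; inhibitors lower the FRET signal by blocking Vif and A3G binding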
Galanin receptor type 3 = molecular target: T1, Galanin receptor type 3 (Homo sapiens, UniProt O60755); test: Fluorescence-based cell-based primary high throughput dose response assay to identify antagonists of the Galanin Receptor 3 (GalR3).; format: functional
T1 sequence (O60755 whole entry): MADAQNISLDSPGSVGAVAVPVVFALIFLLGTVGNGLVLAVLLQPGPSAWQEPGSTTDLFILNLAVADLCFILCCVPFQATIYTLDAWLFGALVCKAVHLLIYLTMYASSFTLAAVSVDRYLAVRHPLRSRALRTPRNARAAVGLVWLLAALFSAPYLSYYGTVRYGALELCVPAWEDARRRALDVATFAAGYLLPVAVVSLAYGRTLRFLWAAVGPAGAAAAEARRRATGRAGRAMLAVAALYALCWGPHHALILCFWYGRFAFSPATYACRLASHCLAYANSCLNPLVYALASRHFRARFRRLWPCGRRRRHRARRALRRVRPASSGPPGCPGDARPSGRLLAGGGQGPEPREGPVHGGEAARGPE

cells [2] = format: functional, cell-based; settings: HEK-CNG
[3] = HepG2 cell cytotoxicity, dose response, cytotoxicity control, plate reader, cherry-pick, antagonist series (AID 743416); format: functional, cell-based
[4] = HEK293 cell cytotoxicity, dose response, cytotoxicity control, plate reader, cherry-picked samples (AID 743446); format: functional, cell-based
[5] = A549 cell cytotoxicity, dose response, cytotoxicity control, plate reader, cherry-pick, antagonist series (AID 743412); format: functional, cell-based
[6] = A cytotoxicity screen of small molecule inhibitors of the PhoP region in Salmonella typhi identified in the primary screen. [Related pubchem assays: 1850, 1864, 1985 ]; format: functional
[7] = molecular target: T2, Oxysterols receptor LXR-beta (Homo sapiens, UniProt P55055); test: LXR agonists, Gal4 luciferase reporter, dose response, counter-screen for ssDAF-12 agonist project, cell-based, luminescence, HEK293, S. stercoralis campaign (AID 720737); format: functional; settings: read-out: IC50 (the source's name)
T2 sequence (P55055 whole entry): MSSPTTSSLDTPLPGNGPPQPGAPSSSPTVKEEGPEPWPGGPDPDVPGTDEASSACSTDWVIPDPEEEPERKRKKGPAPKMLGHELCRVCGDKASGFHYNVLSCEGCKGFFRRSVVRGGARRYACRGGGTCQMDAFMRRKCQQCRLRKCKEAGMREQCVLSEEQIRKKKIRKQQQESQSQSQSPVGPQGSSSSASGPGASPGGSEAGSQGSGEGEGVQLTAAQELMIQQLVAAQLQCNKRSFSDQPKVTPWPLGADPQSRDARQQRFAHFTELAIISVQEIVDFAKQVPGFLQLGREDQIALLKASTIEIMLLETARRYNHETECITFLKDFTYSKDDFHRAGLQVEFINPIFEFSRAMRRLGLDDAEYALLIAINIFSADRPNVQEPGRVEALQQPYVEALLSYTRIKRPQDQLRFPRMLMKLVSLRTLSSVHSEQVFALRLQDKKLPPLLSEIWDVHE

[8] = Luminescence-based cell-based high throughput dose response assay to identify activators of the DAF-12 from the parasite S. stercoralis (ssDAF-12).; format: functional
Large T antigen = Large T antigen (Simian virus 40, UniProt P03070); format: functional, Betapolyomavirus macacae;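 also: Confirmatory-stage PubChem screen for compounds that inhibit SV40 T antigen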
Sequence of Large T antigen (P03070 whole entry): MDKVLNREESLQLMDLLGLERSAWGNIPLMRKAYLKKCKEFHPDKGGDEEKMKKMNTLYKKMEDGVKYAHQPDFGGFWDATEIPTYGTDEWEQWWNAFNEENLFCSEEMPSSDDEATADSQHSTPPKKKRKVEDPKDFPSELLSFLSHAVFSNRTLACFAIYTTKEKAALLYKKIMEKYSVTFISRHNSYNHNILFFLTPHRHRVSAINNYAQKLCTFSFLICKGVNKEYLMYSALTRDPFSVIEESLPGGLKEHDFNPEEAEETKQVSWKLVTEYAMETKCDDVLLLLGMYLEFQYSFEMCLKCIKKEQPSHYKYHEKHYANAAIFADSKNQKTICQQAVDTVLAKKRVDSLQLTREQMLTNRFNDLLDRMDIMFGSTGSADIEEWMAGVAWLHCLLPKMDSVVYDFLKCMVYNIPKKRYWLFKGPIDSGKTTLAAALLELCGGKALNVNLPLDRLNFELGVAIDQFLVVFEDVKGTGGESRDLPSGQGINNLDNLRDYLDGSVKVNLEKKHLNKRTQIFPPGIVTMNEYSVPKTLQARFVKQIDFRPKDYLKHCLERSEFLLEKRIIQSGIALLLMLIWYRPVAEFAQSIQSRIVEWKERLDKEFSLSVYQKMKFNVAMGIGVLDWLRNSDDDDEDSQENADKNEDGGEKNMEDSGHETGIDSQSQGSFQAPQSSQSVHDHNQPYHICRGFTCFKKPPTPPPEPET

[9] = P. falciparum Dd2 growth inhibitors, dose response, SYBR Green, dry powder samples (AID 1159566); format: functional, cell-based;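 also: potency for growth inhibition with lower SYBR green DNA signal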
[10] = P. falciparum Dd2 growth inhibitors, dose response, SYBR Green, cherry-picked samples (AID 1159567); format: functional, cell-based
[11] = inhibitors of HIV Env-driven cell fusion, dose response, cherry-pick (AID 652057); format: functional, cell-based
[12] = P. falciparum ATP4 D1247Y mutant growth inhibitors, dose response, NITD609-resistant line, SYBR Green, dry powder (AID 1159571); format: functional, cell-based;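 also: parasites synchronized at ring stage by sorbitol before testing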
[13] = P. falciparum 3D7-ScDHODH growth inhibitors, dose response, SYBR Green, dry powder samples (AID 1159570); format: functional, cell-based;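 also: parasite growth measured after 72 hours of compound exposure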
[14] = ZM109 Env clade C HIV-1 fusion inhibitors, dose response, HeLa effector, CEM target cells, luciferase, cherry-pick (AID 652058); format: functional, cell-based
[15] = inhibitors of clade B AD8 Env fusion, dose response, cell-based, cherry-pick (AID 652062); format: functional;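 also: luciferase signal from cell-cell fusion driven by HIV-1 clade B AD8 Env; potency is for inhibitors of fusion seen as a drop in luminescence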
Paired box protein Pax-8 = Paired box protein Pax-8 (Homo sapiens, UniProt Q06710); test: inhibitors of PAX8-driven TPO luciferase reporter, dose response, RMG-I cells, cherry-pick (AID 687027); format: functional, cell-based;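 also: luciferase reporter driven by Pax8 target thyroperoxidase promoter measured by SteadyGlo luminescence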
Sequence of Paired box protein Pax-8 (Q06710 whole entry): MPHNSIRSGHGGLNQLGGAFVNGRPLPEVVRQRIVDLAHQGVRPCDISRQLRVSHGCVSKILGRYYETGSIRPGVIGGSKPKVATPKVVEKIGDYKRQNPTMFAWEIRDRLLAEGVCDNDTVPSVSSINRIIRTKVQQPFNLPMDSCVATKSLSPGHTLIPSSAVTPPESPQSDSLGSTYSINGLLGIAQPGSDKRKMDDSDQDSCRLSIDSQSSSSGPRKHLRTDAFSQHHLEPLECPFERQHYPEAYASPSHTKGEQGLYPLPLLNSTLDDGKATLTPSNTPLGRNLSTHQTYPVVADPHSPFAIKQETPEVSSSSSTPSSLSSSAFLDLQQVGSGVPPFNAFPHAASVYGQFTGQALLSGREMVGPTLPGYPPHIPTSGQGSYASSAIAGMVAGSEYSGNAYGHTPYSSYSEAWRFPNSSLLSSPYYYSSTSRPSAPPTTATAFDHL

[16] = IGROV1 ovarian cancer cell cytotoxicity, dose response, PAX8 inhibitor project, plate reader, dry powder samples (AID 743043); format: functional, cell-based; settings: IGROV-1
[17] = ADAM10 inhibitors, peptide cleavage, dose response, biochemical, QFRET (AID 743254);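 also: ADAM10 enzyme with the DM2 quenched FRET peptide as substrate; EDANS fluorescence gain as the protease cuts the substrate; inhibitor potency against ADAM10 proteolytic activity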
[18] = molecular target: Disintegrin and metalloproteinase domain-containing protein 17 (Homo sapiens, UniProt P78536); test: ADAM17 protease inhibitors, dose response, counter-screen for ADAM10 exosite inhibitor project, biochemical, quenched FRET substrate (AID 743253)
Sequence of Disintegrin and metalloproteinase domain-containing protein 17 (P78536 whole entry, the tested form may be a part): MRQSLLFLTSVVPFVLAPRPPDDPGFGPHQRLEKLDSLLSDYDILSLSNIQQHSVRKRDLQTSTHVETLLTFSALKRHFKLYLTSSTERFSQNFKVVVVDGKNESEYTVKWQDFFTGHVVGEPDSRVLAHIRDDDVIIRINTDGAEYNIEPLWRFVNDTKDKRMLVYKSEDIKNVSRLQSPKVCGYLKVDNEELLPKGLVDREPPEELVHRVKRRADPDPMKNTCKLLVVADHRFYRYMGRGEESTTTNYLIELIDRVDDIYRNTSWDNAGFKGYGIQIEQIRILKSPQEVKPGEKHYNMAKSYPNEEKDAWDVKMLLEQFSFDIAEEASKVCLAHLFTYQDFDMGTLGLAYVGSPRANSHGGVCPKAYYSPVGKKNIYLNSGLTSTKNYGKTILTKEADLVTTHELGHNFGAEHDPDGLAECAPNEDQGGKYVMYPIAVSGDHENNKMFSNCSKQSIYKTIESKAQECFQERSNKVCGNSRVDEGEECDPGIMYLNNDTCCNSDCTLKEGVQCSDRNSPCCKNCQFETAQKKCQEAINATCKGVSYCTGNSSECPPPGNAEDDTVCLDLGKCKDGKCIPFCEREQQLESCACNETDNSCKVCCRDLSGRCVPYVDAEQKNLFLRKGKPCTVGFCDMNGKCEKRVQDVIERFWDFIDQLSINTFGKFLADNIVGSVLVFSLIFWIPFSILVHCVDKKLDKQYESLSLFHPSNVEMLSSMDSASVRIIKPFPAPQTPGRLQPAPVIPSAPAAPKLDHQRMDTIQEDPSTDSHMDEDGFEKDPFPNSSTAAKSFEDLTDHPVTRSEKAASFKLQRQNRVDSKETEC

[19] = cytotoxicity toward NIH3T3 fibroblasts, dose response, counter-screen, cell-based, ATP luminescence, mouse fibroblasts (AID 2010); format: functional;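 also: cells exposed to compound for about 90 hours before reading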
cells [20] = test: cells
[21] = inhibitors of intracellular T. cruzi replication, confirmation, NIH3T3 host cells, beta-gal luminescence (AID 2044); format: functional, cell-based;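 also: intracellular parasites grown in NIH/3T3 mouse fibroblasts as host cells; luminescent beta-galactosidase reporter signal from transgenic T. cruzi replicating inside host cells; inhibitors lower the luminescence signal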
Estrogen receptor beta = Estrogen receptor beta (Homo sapiens, UniProt Q92731);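 also: recombinant ER-beta bound to coactivator SRC1 peptide in presence of estradiol agonist; inhibitors block coactivator peptide binding and lower the FRET signal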
Sequence of Estrogen receptor beta (Q92731 whole entry): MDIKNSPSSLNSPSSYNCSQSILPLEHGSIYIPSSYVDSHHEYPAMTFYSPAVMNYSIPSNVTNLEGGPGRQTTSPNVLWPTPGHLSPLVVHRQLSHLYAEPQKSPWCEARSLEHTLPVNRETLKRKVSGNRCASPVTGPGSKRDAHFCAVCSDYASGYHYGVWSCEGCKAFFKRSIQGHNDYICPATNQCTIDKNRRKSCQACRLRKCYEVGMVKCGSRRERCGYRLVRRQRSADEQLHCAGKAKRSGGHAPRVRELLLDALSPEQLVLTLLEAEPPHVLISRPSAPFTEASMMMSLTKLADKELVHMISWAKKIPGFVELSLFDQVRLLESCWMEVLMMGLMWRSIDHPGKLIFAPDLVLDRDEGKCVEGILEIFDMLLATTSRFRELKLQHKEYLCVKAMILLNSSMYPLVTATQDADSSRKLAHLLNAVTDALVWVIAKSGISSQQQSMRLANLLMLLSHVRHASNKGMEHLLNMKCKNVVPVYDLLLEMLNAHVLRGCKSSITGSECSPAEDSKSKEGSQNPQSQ

[22] = molecular target: T3, DNA repair protein RAD52 homolog (Homo sapiens, UniProt P43351); format: functional, biochemical
T3 sequence (P43351 whole entry): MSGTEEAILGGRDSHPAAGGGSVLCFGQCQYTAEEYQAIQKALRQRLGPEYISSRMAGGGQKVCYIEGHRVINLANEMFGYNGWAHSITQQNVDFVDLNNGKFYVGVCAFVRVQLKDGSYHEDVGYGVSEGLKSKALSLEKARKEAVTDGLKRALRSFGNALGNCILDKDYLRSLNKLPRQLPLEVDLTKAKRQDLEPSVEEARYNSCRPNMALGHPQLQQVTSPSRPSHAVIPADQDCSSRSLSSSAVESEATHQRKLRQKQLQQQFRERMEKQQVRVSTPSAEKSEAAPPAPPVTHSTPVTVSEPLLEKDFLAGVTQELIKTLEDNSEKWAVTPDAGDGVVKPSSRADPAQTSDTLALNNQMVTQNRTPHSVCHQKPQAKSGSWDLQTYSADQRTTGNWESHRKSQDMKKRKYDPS

## COc1ccc(Cl)cc1N(CC(=O)Nc1ccc2c(c1)OCO2)S(C)(=O)=O
[1]
  IC50: > 100 µM (active)

## O=C(Nc1nc(-c2ccc(Cl)cc2Cl)cs1)c1ccc(OCC2CCCO2)cc1 (stereo not given)
Galanin receptor type 3
  IC50: 1.07 µM (active)
Cells [2]
  EC50: > 29.9 µM (inactive)

## COc1ccc2cc(C#N)c(Nc3cccc(F)c3)nc2c1
[3]
  AC50: > 52 µM (inactive)
[4]
  AC50: > 52 µM (inactive)
[5]
  AC50: > 52 µM (inactive)

## CCCNC(=O)C1CCN(c2ccc(S(=O)(=O)N3CCOCC3)cc2Cl)CC1
[6]
  EC50: > 50 µM (active)

## COCCCNc1nc2c(-c3ccc(C)cc3)nnn2c2ccccc12
[7]
  EC50: > 67.5 µM (inactive)
[8]
  IC50: > 67.5 µM (inactive)

## CCN(CC)c1ccc(NC(=O)c2ccco2)cc1
[1]
  IC50: > 100 µM (active)
Large T antigen
  IC50: 5.01 µM (active)

## CCS(=O)(=O)c1ccc2oc(Nc3cccc(OC)c3)nc2c1
[1]
  IC50: > 100 µM (active)

## Clc1cccc(-c2nc3c4ccccc4ccn3c2Cc2ccsc2)c1
[7]
  EC50: > 67.6 µM (inactive)
[8]
  IC50: > 67.6 µM (inactive)

## C[C@@H](NC(=O)C[C@H]1C[C@@H]2c3cc(NS(=O)(=O)c4ccc(F)cc4)ccc3O[C@@H]2[C@H](CO)O1)c1ccccc1
[9]
  AC50: 1.4 µM (active)
[10]
  AC50: 2.22 µM (active)
[11]
  AC50: 1.12 µM (active)
[12]
  AC50: 1.09 µM (active)
[13]
  AC50: 2.76 µM (active)
[14]
  AC50: 3.32 µM (active)
[15]
  AC50: 31.7 µM (active)

## C[C@@H]1CCCCO[C@@H](CN(C)Cc2ccc(C(F)(F)F)cc2)[C@H](C)CN([C@H](C)CO)C(=O)c2cc(NC(=O)c3ccccc3)ccc2O1
Paired box protein Pax-8
  AC50: 9.55 µM (active)
[16]
  AC50: 40.9 µM (active)

## COc1ccc(-n2c(Cc3cccs3)nnc2SCC(=O)Nc2ccc(OCc3ccccc3)cc2)cc1
[17]
  IC50: > 69.5 µM (inactive)
[18]
  IC50: > 69.5 µM (inactive)

## C[C@]12CCC(O)CC1=CCC1C2CC[C@]2(C)/C(=N\NC(N)=S)CCC12 (stereo not given in full)
[19]
  EC50: > 60 µM (not active)
Cells [20]
  EC50: 0.103 µM (active)
[21]
  EC50: < 0.1 µM (active)

## Nc1[nH]n(-c2ccccc2)c(=O)c1/N=N/c1ccccc1[N+](=O)[O-]
Estrogen receptor beta
  IC50: > 50 µM (not active)

## c1cc(OCCCN2CCCCC2)ccc1CN1CCCCC1 [JNJ-5207852]
[22]
  AC50: 10.3 µM (active)
